Experimental data as given in PMC8247401, “Evaluation of clinical and genetic factors in the population pharmacokinetics of carbamazepine” (British Journal of Clinical Pharmacology, 2020).
Read-outs that look alike come from different tables or passages of the source.

Assays:
[1] = Population PK model (NONMEM) of plasma CBZ and 3 metabolites after oral CBZ; details: for effect of concomitant treatment as covariate on CBZ clearance/metabolism: categorical covariate on CLTOT in the population PK model, small numbers of subjects; for % Interindividual variability of V2: V2 shared by the 3 metabolites; for clearance: human, plasma, oral; for V2, volume of distribution of metabolites: same V2 estimated for CBZE, 2OH-CBZ and 3OH-CBZ, apparent
[2] = parameters: method as in PMID 6491988; details: fixed, not estimated; CL2 (to CBZE)=CLTOT*(1-FM1), CL3=CL4=CLTOT*FM1/2; cited from earlier work
[3] = cited from earlier work
[4] = parameters: method as in PMID 17382827; details: patients treated with CBZ, cited from earlier work
[5] = 70-kg patient prescribed 400 mg CBZ; model assumes 0.65 of CBZ converted to CBZE; cited from earlier work
[6] = system: microsomal epoxide hydrolase; details: concurrent brivaracetam therapy in patients on CBZ; cited from earlier work
[7] = final model, log-normal distribution

SMILES: COc1ccc2[nH]c([S+]([O-])Cc3ncc(C)c(OC)c3C)nc2c1 (stereo not shown) [omeprazole]
- effect of concomitant treatment as covariate on CBZ clearance/metabolism [1]: Neither was found to affect metabolism of CBZ significantly

SMILES: NC(=O)N1c2ccccc2C=Cc2ccc(O)cc21 [3OH‐CBZ, 3‐hydroxycarbamazepine]
- % Interindividual variability of CL4E [1, 7]: 34.5%
- % Interindividual variability of V2 [1, 7]: 149.7%
- clearance [1]: 9050 mL/min
- V2, volume of distribution of metabolites ([1]; population mean): 39.2 L

SMILES: NC(=O)N1c2ccccc2C=Cc2ccccc21 [CBZ, Carbamazepine]
- FM1 (metabolite fraction) [2]: 0.64
- fraction of CBZ converted to CBZE assumed in this model [3]: 0.36
- parent CBZ primarily converted to CBZE ([3]; prior mass balance information): 36%
- fraction of CBZ converted to CBZE assumed in the model of Jiao et al. ([3]; ref Jiao et al. (58)): 0.65
- patients experiencing a hypersensitivity reaction [4]: up to 10%
- patients experiencing a hypersensitivity reaction ([4]; listed as Carbamazepine): ~ 10%
- % Interindividual variability of CLTOT [1, 7]: 25.3%
- % Interindividual variability of FM1 [1, 7]: 6.3%
- % Interindividual variability of KASTAR [1, 7]: 75.3%
- % Interindividual variability of V1 [1, 7]: 13.6%
- V1, central distribution volume of CBZ ([1]; population mean, final model, apparent (V/F)): 161 L
- CLTOT, total clearance of CBZ ([1]; population mean, final model, oral dosing, apparent (CL/F), typical value non-induced, 400 mg daily dose, no phenytoin): 1.96 L/h
- KASTAR ([1]; population mean, absorption rate constant KA=CLTOT/V1+KAstar): 0.409 h⁻¹

SMILES: CCC1(c2ccccc2)C(=O)NC(=O)NC1=O [phenobarbital]
- effect of concomitant treatment as covariate on CBZ clearance/metabolism [1]: None of those antiepileptic drugs (AEDs) achieved a significant effect

SMILES: NC(=O)N1c2ccccc2C2OC2c2ccccc21 (stereo not shown) [CBZE, carbamazepine 10,11‐epoxide]
- CL estimate for CBZE in a previous population PK model [5]: 28 L/h
- reduction of clearance of CBZE ([1]; EPHX1-416G/G genotype (3 subjects) compared with EPHX1-416G/A and -416A/A): approximately 50%
- % Interindividual variability of CL2E [1, 7]: 27.9%
- % Interindividual variability of V2 [1, 7]: 149.7%
- clearance [1]: 162 mL/min
- Cov.Eff.(EPHXAGHOM on CL2E) ([1]; multiplier on CBZE clearance in EPHX1-416G/G homozygotes (n=3) vs G/A and A/A): 0.502
- V2, volume of distribution of metabolites ([1]; population mean): 39.2 L

SMILES: CCC[C@@H]1CC(=O)N([C@@H](CC)C(N)=O)C1 [Brivaracetam]
- rise in CBZE levels, median [6]: 83.9%
- rise in CBZE levels, range [6]: 57.9–341.7%

SMILES: NC(=O)OCC(COC(N)=O)c1ccccc1 [felbamate]
- effect of concomitant treatment as covariate on CBZ clearance/metabolism [1]: None of those antiepileptic drugs (AEDs) achieved a significant effect

SMILES: NC(=O)N1c2ccccc2C=Cc2cc(O)ccc21 [2OH‐CBZ, 2‐hydroxycarbamazepine]
- % Interindividual variability of CL3E [1, 7]: 42.3%
- % Interindividual variability of V2 [1, 7]: 149.7%
- clearance [1]: 12100 mL/min
- CL3E induction effect ([1]; multiplier (fold) on CL3E for induced period vs non-induced): 1.63
- V2, volume of distribution of metabolites ([1]; population mean): 39.2 L
